ChEMBL document CHEMBL3045988, “Computational and thermodynamic analyses of the phospholipase A2 inhibition by erucic acid and linoleic acid” (Med Chem Res, 2013)

Molecular target: Phospholipase A2 (Sus scrofa) (UniProt P00592+P04416)
Assay: Binding affinity to Sus scrofa (pig) PLA2 isolated from pancreas by isothermal titration calorimetric analysis
Type: protein assay

Phospholipase A2 (Sus scrofa), sequence (P00592 whole entry, looked up): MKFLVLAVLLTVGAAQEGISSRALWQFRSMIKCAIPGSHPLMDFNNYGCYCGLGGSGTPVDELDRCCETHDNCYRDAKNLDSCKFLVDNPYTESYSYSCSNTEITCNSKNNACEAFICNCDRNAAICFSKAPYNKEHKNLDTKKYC
Phospholipase A2 (Sus scrofa), sequence (P04416 whole entry, looked up): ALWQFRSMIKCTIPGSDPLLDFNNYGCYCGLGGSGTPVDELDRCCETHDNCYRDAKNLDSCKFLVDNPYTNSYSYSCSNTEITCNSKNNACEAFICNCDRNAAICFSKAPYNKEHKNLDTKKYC

K | SMILES
23.3 ×10⁴ /M | CCCCCCCC/C=C\CCCCCCCCCCCC(=O)O
1.15 ×10⁴ /M | CCCCC/C=C\C/C=C\CCCCCCCC(=O)O
